{"source": "PubChem BioAssay (NCI)", "assay_in_all_cases": "NCI tumour cell line growth inhibition, 48 h", "key": {"SNB-75 CNS": {"test_system": "SNB-75 CNS"}, "OVCAR-4 ovarian": {"test_system": "OVCAR-4 ovarian"}, "SW-620 colon": {"test_system": "SW-620 colon"}, "HT29 colon": {"test_system": "HT29 colon"}, "SK-MEL-5 melanoma": {"test_system": "SK-MEL-5 melanoma"}, "SK-OV-3 ovarian": {"test_system": "SK-OV-3 ovarian"}, "OVCAR-3 ovarian": {"test_system": "OVCAR-3 ovarian"}, "UACC-62 melanoma": {"test_system": "UACC-62 melanoma"}, "MDA-MB-435": {"test_system": "MDA-MB-435"}, "NCI-H226 lung": {"test_system": "NCI-H226 lung"}, "RPMI-8226 leukemia": {"test_system": "RPMI-8226 leukemia"}, "786-0 renal": {"test_system": "786-0 renal"}, "SK-MEL-28 melanoma": {"test_system": "SK-MEL-28 melanoma"}, "TK-10 renal": {"test_system": "TK-10 renal"}, "U251 CNS": {"test_system": "U251 CNS"}, "EKVX NSCLC": {"test_system": "EKVX NSCLC"}, "MDA-MB-231 breast": {"test_system": "MDA-MB-231 breast"}, "KM12 colon": {"test_system": "KM12 colon"}, "SF-539 CNS": {"test_system": "SF-539 CNS"}, "SR leukemia": {"test_system": "SR leukemia"}}, "note": "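Results reflect a 48-hour exposure of cells in 96-well plates to compound at five concentrations. At the TGI there is no net growth.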"}
{"compound": "O=C(O)CCCNc1ncc2c(n1)-c1ccccc1OC2", "values": [{"measurement": "TGI", "setting": "SNB-75 CNS", "value": "> 100", "unit": "µM"}, {"measurement": "TGI", "setting": "OVCAR-4 ovarian", "value": "> 100", "unit": "µM"}, {"measurement": "TGI", "setting": "SW-620 colon", "value": "> 100", "unit": "µM"}, {"measurement": "TGI", "setting": "HT29 colon", "value": "> 100", "unit": "µM"}, {"measurement": "TGI", "setting": "SK-MEL-5 melanoma", "value": "> 100", "unit": "µM"}, {"measurement": "TGI", "setting": "SK-OV-3 ovarian", "value": "> 100", "unit": "µM"}, {"measurement": "TGI", "setting": "OVCAR-3 ovarian", "value": "> 100", "unit": "µM"}, {"measurement": "TGI", "setting": "UACC-62 melanoma", "value": "> 100", "unit": "µM"}, {"measurement": "TGI", "setting": "MDA-MB-435", "value": "> 100", "unit": "µM"}, {"measurement": "TGI", "setting": "NCI-H226 lung", "value": "> 100", "unit": "µM"}, {"measurement": "TGI", "setting": "RPMI-8226 leukemia", "value": "> 100", "unit": "µM"}, {"measurement": "TGI", "setting": "786-0 renal", "value": "> 100", "unit": "µM"}, {"measurement": "TGI", "setting": "SK-MEL-28 melanoma", "value": "> 100", "unit": "µM"}, {"measurement": "TGI", "setting": "TK-10 renal", "value": "> 100", "unit": "µM"}, {"measurement": "TGI", "setting": "U251 CNS", "value": "> 100", "unit": "µM"}, {"measurement": "TGI", "setting": "EKVX NSCLC", "value": "> 100", "unit": "µM"}, {"measurement": "TGI", "setting": "MDA-MB-231 breast", "value": "> 100", "unit": "µM"}, {"measurement": "TGI", "setting": "KM12 colon", "value": "> 100", "unit": "µM"}, {"measurement": "TGI", "setting": "SF-539 CNS", "value": "> 100", "unit": "µM"}, {"measurement": "TGI", "setting": "SR leukemia", "value": "> 100", "unit": "µM"}]}
{"compound": "CCS(=O)c1c2cc(OC)ccc2nc2ccc(OC)cc12", "note": "(stereo not given)", "values": [{"measurement": "TGI", "setting": "SNB-75 CNS", "value": 38.2, "unit": "µM"}, {"measurement": "TGI", "setting": "OVCAR-4 ovarian", "value": 36.1, "unit": "µM"}, {"measurement": "TGI", "setting": "SW-620 colon", "value": "> 65.9", "unit": "µM"}, {"measurement": "TGI", "setting": "HT29 colon", "value": 10, "unit": "µM"}, {"measurement": "TGI", "setting": "SK-MEL-5 melanoma", "value": 30.3, "unit": "µM"}, {"measurement": "TGI", "setting": "SK-OV-3 ovarian", "value": 47.5, "unit": "µM"}, {"measurement": "TGI", "setting": "OVCAR-3 ovarian", "value": 14.9, "unit": "µM"}, {"measurement": "TGI", "setting": "UACC-62 melanoma", "value": 33.4, "unit": "µM"}, {"measurement": "TGI", "setting": "MDA-MB-435", "value": 26.4, "unit": "µM"}, {"measurement": "TGI", "setting": "NCI-H226 lung", "value": 47.8, "unit": "µM"}, {"measurement": "TGI", "setting": "RPMI-8226 leukemia", "value": 16.5, "unit": "µM"}, {"measurement": "TGI", "setting": "786-0 renal", "value": 6.42, "unit": "µM"}, {"measurement": "TGI", "setting": "SK-MEL-28 melanoma", "value": 23.4, "unit": "µM"}, {"measurement": "TGI", "setting": "TK-10 renal", "value": 10.3, "unit": "µM"}, {"measurement": "TGI", "setting": "U251 CNS", "value": "> 55.3", "unit": "µM"}, {"measurement": "TGI", "setting": "EKVX NSCLC", "value": 32.3, "unit": "µM"}, {"measurement": "TGI", "setting": "MDA-MB-231 breast", "value": 11.2, "unit": "µM"}, {"measurement": "TGI", "setting": "KM12 colon", "value": 41, "unit": "µM"}, {"measurement": "TGI", "setting": "SF-539 CNS", "value": "> 59", "unit": "µM"}, {"measurement": "TGI", "setting": "SR leukemia", "value": "> 25", "unit": "µM"}]}
{"compound": "CN(C)CCCNC(=O)c1cc(NS(=O)(=O)c2ccc3c(c2)C(=O)c2ccccc2C3=O)cn1C", "values": [{"measurement": "TGI", "setting": "SNB-75 CNS", "value": 56, "unit": "µM"}, {"measurement": "TGI", "setting": "OVCAR-4 ovarian", "value": 36.8, "unit": "µM"}, {"measurement": "TGI", "setting": "SW-620 colon", "value": "> 100", "unit": "µM"}, {"measurement": "TGI", "setting": "HT29 colon", "value": 81.4, "unit": "µM"}, {"measurement": "TGI", "setting": "SK-MEL-5 melanoma", "value": 37.4, "unit": "µM"}, {"measurement": "TGI", "setting": "SK-OV-3 ovarian", "value": "> 100", "unit": "µM"}, {"measurement": "TGI", "setting": "OVCAR-3 ovarian", "value": "> 100", "unit": "µM"}, {"measurement": "TGI", "setting": "UACC-62 melanoma", "value": 41.4, "unit": "µM"}, {"measurement": "TGI", "setting": "MDA-MB-435", "value": 59, "unit": "µM"}, {"measurement": "TGI", "setting": "NCI-H226 lung", "value": 42.5, "unit": "µM"}, {"measurement": "TGI", "setting": "RPMI-8226 leukemia", "value": 53.2, "unit": "µM"}, {"measurement": "TGI", "setting": "786-0 renal", "value": 77.3, "unit": "µM"}, {"measurement": "TGI", "setting": "SK-MEL-28 melanoma", "value": 50.8, "unit": "µM"}, {"measurement": "TGI", "setting": "TK-10 renal", "value": 51.3, "unit": "µM"}, {"measurement": "TGI", "setting": "U251 CNS", "value": "> 100", "unit": "µM"}, {"measurement": "TGI", "setting": "EKVX NSCLC", "value": "> 100", "unit": "µM"}, {"measurement": "TGI", "setting": "MDA-MB-231 breast", "value": 85.5, "unit": "µM"}, {"measurement": "TGI", "setting": "KM12 colon", "value": 41.1, "unit": "µM"}, {"measurement": "TGI", "setting": "SF-539 CNS", "value": 75.6, "unit": "µM"}, {"measurement": "TGI", "setting": "SR leukemia", "value": 85.2, "unit": "µM"}]}
